From patent US9266900B2, “Additives for improved isohexide products” (ARCHER DANIELS MIDLAND COMPANY, priority 2012, dated 2016)
Several values for one entry are separate records, joined by “and”; a condition that tells them apart may be missing. Equal entries are not always repeated.

What was measured:
[1] = Heating of isosorbide distillate in 200° C. oil bath for 1 hr under air, APHA color by UV/vis; assay type: physicochemical; conditions: 0.5 g diluted with 2 mL water
Description: About, an 11 gram sample of the isosorbide distillate was added to a glass tube and capped with a septum. The glass tube was then submerged in a 200° C. oil bath for 1 hr under air. Approximately 0.5 g of the heated distillate sample was subsequently diluted with 2 mL of water and analyzed by UV/vis to obtain an APHA color value. An APHA color of approximately 250 was observed, compared to an APHA value for a distillate sample absent the DTMP additive that was offscale (>500).
About an 11 gram sample of the isosorbide distillate was added to a glass tube and capped with a septum. The glass tube was then submerged in a 200° C. oil bath for 1 hr under air.

[2] = Thermal aging of 85% solution of the distillate in water at 85 deg C. up to 28 days; assay type: physicochemical; conditions: for formic acid concentration, final sample / furfural concentration, final sample / APHA color, day 28 / formic acid concentration, initially / furfural concentration, initially / APHA color, time zero: 85% solution; for formic acid concentration, final sample / furfural concentration, final sample / APHA color, day 28: 85 deg C.; for formic acid concentration, final sample / furfural concentration, final sample: 28 days; for APHA color, day 28: day 28, final diluted (20%); for formic acid concentration, initially / furfural concentration, initially: initial; for APHA color, time zero: diluted (20%)
[3] = Distillation of crude isosorbide mixture with added antioxidant: co-distillation and initial distillate color; assay type: physicochemical; conditions: for initial APHA color of the neat distillate: neat distillate after distillation, ASTM D1209; for additive distilled with the isosorbide / recovered in the distillate by UPLC analysis: short path distillation, oil bath 185 to 195 degrees Celsius, less than 2 torr; for antioxidant recovered in the distillate, yield: co-distilled with isosorbide
Description: A 500 mL boiling flask equipped with a Teflon stir bar was charged with 100 g of ion-exchanged (strong acid cation/strong base anion-exchanged), dewatered, molten isosorbide. While stirring, 40.02 mg of 2,6-di-tert-butyl-4-methoxyphenol (DTMP), previously dissolved in 2 mL of absolute ethanol, was added via pipette, indicating the DTMP concentration as 400 ppm in the matrix. The flask was then outfitted with a still head, condenser, and receiver, placed under a vacuum of <2 torr, and placed in a digitally controlled oil bath. The bath was gradually heated to 190 degrees Celsius while maintaining a vacuum. At a bath temperature of approximately 155 degrees, isosorbide began to distill (vapor temperature of 150 deg C.). Continuous distillation occurred for approximately 30 minutes. 45.6 grams of clear, colorless isosorbide was collected, whose APHA color was measured as 6. Quantitative analysis by UPLC determined the concentration of DTMP in the distilled isosorbide to be 503 ppm.
In this as in subsequent examples, a quantity of an antioxidant under evaluation was dissolved in 1-2 mL of absolute ethanol and then added via pipette to a crude isosorbide mixture which had been treated previously to remove ionic species therefrom. Amounts were set so that the concentration of the antioxidant in the crude isosorbide mixture was in the range of from 250 to 900 ppm by weight. The stabilized crude isosorbide mixtures were then distilled in turn in a short path, jacketed distillation apparatus consisting of a 250 cc 3 neck boiling flask containing a PTFE magnetic stir bar in which one neck was fitted with a rubber septum, a thermocouple extended into the mixture being distilled from a central neck, and the third neck was equipped with the short path head leading to a boiling flask receiver maintained at 80 degrees Celsius. The boiling flask was immersed in an oil bath maintained at from 185 to 195 degrees Celsius, and distillation occurred under a vacuum pressure of less than 2 torr.

[4] = Thermal aging of neat distillate in 85 deg C. oven under air up to 28 days; assay type: physicochemical; conditions: for formic acid after 28 days / furfural after 28 days / APHA color after 28 days: 85 deg C.; for APHA color after 28 days: air, measured as a 20% solution; for APHA color, time zero: UV/vis; for color stability criteria after accelerated aging: 85 degrees Celsius, 4 weeks, APHA less than 200 neat distillate and less than 250 for 85% solution
Description: The DTMP-stabilized distillate was further tested for color storage stability by thermal aging over a more extended period of time, in particular, by preparing typically five 10 mL headspace vials of each of the neat distillate and an 85% solution of the distillate in water in 0.5 gram sample portions. One vial of the set of five for the neat distillate or the 85% solution was set aside as the “time zero” data point. The time zero sample was diluted with 2 mL of water and analyzed.
For the neat distillate, the APHA color of the time zero sample was less than 20 by UV/vis. All other decomposition products were less than 5 ppm. The four other vials of the neat distillate were then placed in an 85 deg C. oven trader air, and one vial was removed at 7 days, another at 14 days, another at 21 days, and the last of the four at 28 days. Once removed from the oven, each sample was allowed to cool to room temperature and diluted with 2 mL of water. The sample was then analyzed by UV/vis, UPLC, LC-MS, and GC. After 28 days, APHA color, measured as a 20% solution, was only 28. Furfural and formic acid were measured at 18 ppm and 39 ppm, respectively.
The BBTC-stabilized distillate was further tested for color storage stability by thermal aging over a more extended period of time, in particular, by preparing typically five 10 mL headspace vials of each of the neat distillate and an 85% solution of the distillate in water in 0.5 gram sample portions. One vial of the set of five for the neat distillate or the 85% solution was set aside as the “time zero” data point. The time zero sample was diluted with 2 mL of water and analyzed.
For the neat distillate, the APHA color of the time zero sample was less than 1 by UV/vis. Formic acid concentration in the time zero sample was less than 5 ppm, while furfural concentration was less than 1 ppm. The four other vials of the neat distillate were then placed in an 85 deg C. oven under air, and one vial was removed at 7 days, another at 14 days, another at 21 days, and the last of the four at 28 days. Once removed from the oven, each sample was allowed to cool to room temperature and diluted with 2 mL of water. Each sample was then analyzed by UV/vis, UPLC, LC-MS, and GC. After 28 days, APHA color, measured as a 20% solution, was 191. Furfural and formic acid were measured at 298 ppm and 6,102 ppm, respectively.

[5] = Solubility and retention of stabilizer in isosorbide product; conditions: 85% solution isosorbide product
[6] = stable = formic acid less than 5 ppm and monoanhydrohexoses less than 50 ppm, dry weight basis; cited from earlier work
[7] = Isosorbide (100% molten) mixed with additives, heated 1-2 hours at 200 degrees Celsius, accelerated aging tests; conditions: additive screening

| formic acid concentration, final sample [2] [ppm] | APHA color, day 28 [2] | formic acid concentration, initially [2] | APHA color, time zero [2] | initial APHA color of the neat distillate [3] | additive distilled with the isosorbide / recovered in the distillate by UPLC analysis [3] | formic acid after 28 days ([4]; neat distillate) | APHA color after 28 days ([4]; neat distillate) | formic acid concentration, time zero ([4]; neat distillate, time zero) | APHA color, time zero ([4]; neat distillate, time zero) | SMILES | stability of composition according to the '477 patent [6] | further results |
| --- | --- | --- | --- | --- | --- | --- | --- | --- | --- | --- | --- | --- |
| 4264 | more than 500 | less than 5 ppm | less than 1 | 10 | About 83% | 6,102 ppm | 191 | less than 5 ppm | less than 1 | CCCC(c1cc(C(C)(C)C)c(O)cc1C)c1cc(C(C)(C)C)c(O)cc1C [BBTC, 4,4′-butylidenebis(6-t-butyl-m-cresol)] | – | APHA color after heating [1]: offscale; furfural concentration, final sample [2]: 298 ppm; furfural concentration, initially [2]: less than 1 ppm; furfural after 28 days ([4]; neat distillate): 298 ppm; furfural concentration, time zero ([4]; neat distillate, time zero): less than 1 ppm |
| – | – | – | – | – | – | – | – | – | – | Cc1cc(C(C)(C)C)c(O)c(C(C)(C)C)c1 [BHT] | stable | – |
| 63 | 50 | less than 5 ppm | 5 | 13 | About 84% | 74 ppm | 17 | less than 5 ppm | less than 15 | COc1cc(C)cc(OC)c1O [DMMP, 2,6-dimethoxy-4-methylphenol] | – | solubility in 85% solution product [5]: continued good solubility; APHA color after heating [1]: 205; antioxidant recovered in the distillate, yield [3]: 84%; color stability criteria after accelerated aging [4]: criteria were met |
| – | – | – | – | 18.7 | – | – | – | – | – | COc1cccc(OC)c1O [DMP, 2,6-dimethoxyphenol] | – | antioxidant recovered in the distillate, yield [3]: 64%; color stability criteria after accelerated aging [4]: met the criterion for either the neat distillate or the 85% solution product hut not for both |
| 250 | 150 | – | 0 | – | – | 39 ppm | 28 | – | less than 20 | COc1cc(C(C)(C)C)c(O)c(C(C)(C)C)c1 [DTMP, 2,6-di-tert-butyl-4-methoxyphenol] | – | APHA color after heating [1]: approximately 250; furfural concentration, final sample [2]: 88 ppm; furfural concentration, initially [2]: less than 5 ppm; 5-hydroxymethylfurfural (HMF) formation ([2]; 85% stabilized sample, aged): < 5 ppm; concentration of additive in the distilled isosorbide by UPLC ([3]; 400 ppm in the matrix before distillation): 503 ppm; antioxidant recovered in the distillate, yield [3]: 50%; color stability criteria after accelerated aging [4]: met the criterion for either the neat distillate or the 85% solution product hut not for both; furfural after 28 days ([4]; neat distillate): 18 ppm; all other decomposition products, time zero ([4]; neat distillate, time zero): less than 5 ppm; 5-hydroxymethylfurfural (HMF) formation ([4]; neat stabilized sample, aged): < 5 ppm |
| – | – | – | – | – | – | – | – | – | – | O=P([O-])([O-])O.[Na+].[Na+] [Na2HPO4] | stable | – |
| – | – | – | – | – | – | – | – | – | – | O=B[O-].[Na+] [NaBO2] | stable | – |
| – | – | – | – | – | – | – | – | – | – | [Na+].[OH-] [NaOH] | stable | – |
| 770 | more than 500 | less than 5 ppm | less than 1 | – | Virtually a quantitative recovery | 3458 ppm | 233 | less than 5 ppm | 110 | CC(C)(C)c1cc(O)ccc1O [TBHQ, tert-butylhydroquinone] | – | furfural concentration, final sample [2]: 257 ppm; furfural concentration, initially [2]: less than 1 ppm; furfural after 28 days ([4]; neat distillate): 182 ppm; furfural concentration, time zero ([4]; neat distillate, time zero): less than 1 ppm |
| 3360 | more than 500 | less than 5 ppm | 5 | 15 | About 26% | 3291 ppm | over 500 | less than 5 ppm | 15 | Cc1c(C)c2c(c(C)c1O)CCC(C)(C(=O)O)O2 (stereo not shown) [Trolox™, 6-hydroxy-2,5,7,8-tetramethylchromane-2-carboxylic acid] | – | furfural concentration, final sample [2]: 512 ppm; furfural concentration, initially [2]: less than 1 ppm; furfural after 28 days ([4]; neat distillate): 460 ppm; furfural concentration, time zero ([4]; neat distillate, time zero): less than 1 ppm; rate of color formation compared to control vials containing distillate alone ([4]; thermal aging, stabilized samples vs control): developed color more quickly |
| – | – | – | – | – | – | – | – | – | – | C1OC1COC1COC2C(OCC3CO3)COC12 (stereo not shown) [isosorbide diglycidol ether] | – | effect on color stability of isosorbide [7]: ineffective in the absence of an antioxidant |
| – | – | – | – | – | – | – | – | – | – | C1COCCN1 [morpholine] | stable | – |
| – | – | – | – | – | – | – | – | – | – | O=C1O[C@H]([C@@H](O)CO)C(O)=C1O [vitamin C] | stable | – |

| SMILES | formic acid concentration, final sample [2] [ppm] | APHA color, day 28 [2] | formic acid concentration, initially [2] | APHA color, time zero [2] | initial APHA color of the neat distillate [3] | additive distilled with the isosorbide / recovered in the distillate by UPLC analysis [3] | formic acid after 28 days ([4]; neat distillate) | APHA color after 28 days ([4]; neat distillate) | formic acid concentration, time zero ([4]; neat distillate, time zero) | APHA color, time zero ([4]; neat distillate, time zero) | stability of composition according to the '477 patent [6] | further results |
| --- | --- | --- | --- | --- | --- | --- | --- | --- | --- | --- | --- | --- |
| COc1ccc(O)c(C(C)(C)C)c1 [BHA, butylated hydroxyanisole] | 44 | 30 | less than 5 ppm | less than 1 | 14.1 and 14 | About 63% | 21 ppm | 40 | less than 5 ppm | less than 15 | – | solubility in 85% solution product [5]: continued good solubility; APHA color after heating [1]: 222; antioxidant recovered in the distillate, yield [3]: 63%; color stability criteria after accelerated aging [4]: criteria were met |
